The subject of one data set is male Wistar albino rats. Put plainly: Streptozotocin (STZ) model of diabetes, blood glucose AUC. The class given is in vivo, rat. As to conditions: decrease in blood glucose relative to Amaryl = 100%; model not stated. As to the method: The complete course of the experiment was conducted using male Wistar albino rats (200-250 g), reared and maintained in the animal house of the institution and provided free access to pelleted food and water ad libitum. The rats were maintained in a controlled environment (12 h light and dark cycle) for about a week for acclimatization. The protocol of the study was approved by the animal ethics committee of the Faculty of Pharmacy, […] University (10-01-2012). The study was conducted in accordance with the EC, directive 86/609/EEC for animal experiments. […] Equivalent doses of all derivatives were calculated according to their molecular weight [M·wt]. Diabetes was induced in overnight fasted rats with a single intraperitoneal injection of streptozotocin (STZ) (Sigma-Aldrich, Co., St. Louis, USA. Catalog number: 1001062761) in a dose of 65 mg/kg. STZ was freshly dissolved in ice cold citrate buffer (0.01 M, pH 4.5) prior to injection. […] Group 2, diabetic + Glimepiride ([…]) (4 mg/kg), served as a reference antidiabetic drug. Groups (3-14) were given the various pyrrole derivatives ([…], b, f, and VIIIf, a, resp.). The treated groups administered the […] and different derivatives orally. For each group, blood glucose was estimated at zero, one, two, four, and six hours after oral administration of derivatives using glucometer (Gluco Dr Super Sensor, AllMedicus Co., Ltd., Anyang, Gyeonggi, Korea). Data were represented as mean area under curve (AUC) ± SD. Significant differences between groups was tested using GraphPad InStat (Graph software Inc., V 3.05, Ralph […], Purdue University). Appropriate graphs were plotted using Microsoft Excel 2007.

For the molecule `Nc1ncnc2c1c(-c1ccccc1)c(-c1ccccc1)n2-c1ccc(Cl)c(Cl)c1` [IIId, 7-(3,4-Dichlorophenyl)-5,6-diphenyl-7H-pyrrolo[2,3-d]pyrimidin-4-amine], the melting point lay in the range of 115 to 118 °C.

`Cc1c(-n2cc(-c3ccccc3)c3c(N)ncnc32)c(=O)n(-c2ccccc2)n1C` [IIIe, 4-(4-Amino-5-phenyl-7H-pyrrolo[2,3-d]pyrimidin-7-yl)-1,5-dimethyl-2-phenyl-1H-pyrazol-3(2H)-one] registered a melting point of 152 to 155 °C.

In turn, `Nc1nc(=S)[nH]c2c1c(-c1ccccc1)c(-c1ccccc1)n2-c1ccc(Cl)c(Cl)c1` [IIIi, 4-Amino-7-(3,4-dichlorophenyl)-5,6-diphenyl-1H-pyrrolo[2,3-d] pyrimidine-2(7H)-thione] registered a melting point of 90 to 95 °C.

`Cc1c(-n2cc(-c3ccccc3)c3c(N)nc(=S)[nH]c32)c(=O)n(-c2ccccc2)n1C` [IIIj, 4-(4-Amino-5-phenyl-2-thioxo-1H-pyrrolo[2,3-d]pyrimidin-7(2H)-yl)-1,5-dimethyl-2-phenyl-1H-pyrazol-3(2H)-one]: the melting point lay in the range of 172 to 174 °C.

Molecule `O=c1[nH]cnc2c1c(-c1ccccc1)c(-c1ccccc1)n2-c1ccc(Cl)c(Cl)c1` [IId, 7-(3,4-Dichlorophenyl)-5,6-diphenyl-3H-pyrrolo[2,3-d]pyrimidin-4(7H)-one] returned a melting point of 172 to 176 °C.

The molecule `Cc1c(-n2cc(-c3ccccc3)c3c(=O)[nH]cnc32)c(=O)n(-c2ccccc2)n1C` [IIe, 7-(1,5-Dimethyl-3-oxo-2-phenyl-2,3-dihydro-1H-pyrazol-4-yl)-5-phenyl-3H-pyrrolo[2,3-d]pyrimidin-4(7H)-one] showed a melting point of 205 to 208 °C.

On to `Cc1nc2c(c(-c3ccccc3)c(-c3ccccc3)n2-c2ccc(Cl)c(Cl)c2)c(=O)[nH]1` [IIi, 7-(3,4-Dichlorophenyl)-2-methyl-5,6-diphenyl-3H-pyrrolo[2,3-d]pyrimidin-4(7H)-one], for which the melting point lay in the range of 200 to 202 °C.

In turn, `Cc1nc2c(c(-c3ccccc3)cn2-c2c(C)n(C)n(-c3ccccc3)c2=O)c(=O)[nH]1` [IIj, 7-(1,5-Dimethyl-3-oxo-2-phenyl-2,3-dihydro-1H-pyrazol-4-yl)-2-methyl-5-phenyl-3H-pyrrolo[2,3-d]pyrimidin-4(7H)-one] showed a melting point of 225 to 227 °C.

`Clc1ccc(-n2c(-c3ccccc3)c(-c3ccccc3)c3c(Cl)ncnc32)cc1Cl` [IVd, 4-Chloro-7-(3,4-dichlorophenyl)-5,6-diphenyl-7H-pyrrolo[2,3-d]pyrimidine] gave a melting point of 124 to 128 °C.

`Cc1c(-n2cc(-c3ccccc3)c3c(Cl)ncnc32)c(=O)n(-c2ccccc2)n1C` [IVe, 4-(4-Chloro-5-phenyl-7H-pyrrolo[2,3-d]pyrimidin-7-yl)-1,5-dimethyl-2-phenyl-1H-pyrazol-3(2H)-one] yielded a melting point of 125 to 130 °C.

The molecule `Cc1nc(Cl)c2c(-c3ccccc3)c(-c3ccccc3)n(Cc3ccccc3)c2n1` [IVf, 7-Benzyl-4-chloro-2-methyl-5,6-diphenyl-7H-pyrrolo[2,3-d]pyrimidine] yielded a melting point of 120 to 124 °C.

`Cc1nc(Cl)c2c(-c3ccccc3)c(-c3ccccc3)n(-c3ccc(Cl)c(Cl)c3)c2n1` [IVh, 4-Chloro-7-(3,4-dichlorophenyl)-2-methyl-5,6-diphenyl-7H-pyrrolo[2,3-d]pyrimidine] gave a melting point of 108 to 110 °C.

For the molecule `Cc1nc(Cl)c2c(-c3ccccc3)cn(-c3c(C)n(C)n(-c4ccccc4)c3=O)c2n1` [IVi, 4-(4-Chloro-2-methyl-5-phenyl-7H-pyrrolo[2,3-d]pyrimidin-7-yl)-1,5-dimethyl-2-phenyl-1H-pyrazol-3(2H)-one], the melting point was in the range of 95 to 100 °C.

`N#Cc1c(-c2ccccc2)c(-c2ccccc2)n(-c2ccc(Cl)c(Cl)c2)c1N` [Id, 2-Amino-1-(3,4-dichlorophenyl)-4,5-diphenyl-1H-pyrrole-3-carbonitrile]: the melting point was in the range of 118 to 122 °C.

Regarding `CC(=O)Nc1c(C#N)c(-c2ccccc2)c(-c2ccccc2)n1-c1ccc(Cl)c(Cl)c1` [In, N-(3-Cyano-1-(3,4-dichlorophenyl)-4,5-diphenyl-1H -pyrrol-2-yl) acetamide], the melting point is 135 to 138 °C.

`CC(=O)Nc1c(C#N)c(-c2ccccc2)cn1-c1c(C)n(C)n(-c2ccccc2)c1=O` [Io, N-(3-Cyano-1-(1,5-dimethyl-3-oxo-2-phenyl-2,3-dihydro-1H -pyrazol-4-yl)-4-phenyl-1H -pyrrol-2-yl)acetamide] showed a melting point of 135 to 138 °C.

Molecule `N#Cc1c(-c2ccccc2)c(-c2ccccc2)n(-c2ccc(Cl)c(Cl)c2)c1NN=C1C(N)=NN=C1N` [VIIId, 2-(2-(3,5-Diamino-4H-pyrazol-4-ylidene)hydrazinyl)-1-(3,4-dichlorophenyl)-4,5-diphenyl-1H-pyrrole-3-carbonitrile] displayed a melting point of 120 to 124 °C.

Molecule `Cc1c(-n2cc(-c3ccccc3)c(C#N)c2NN=C2C(N)=NN=C2N)c(=O)n(-c2ccccc2)n1C` [VIIIe, 2-(2-(3,5-Diamino-4H-pyrazol-4-ylidene)hydrazinyl)-1-(1,5-dimethyl-3-oxo-2-phenyl-2,3-dihydro-1H-pyrazol-4-yl)-4-phenyl-1H-pyrrole-3-carbonitrile] had a melting point of 135 to 138 °C.

In turn, `N#Cc1c(-c2ccccc2)c(-c2ccccc2)n(Cc2ccccc2)c1NN=C1C(N)=NN=C1O` [VIIIf, 2-(2-(3-Amino-5-hydroxy-4H-pyrazol-4-ylidene)hydrazinyl)-1-benzyl-4,5-diphenyl-1H-pyrrole-3-carbonitrile] registered a melting point of 97 to 100 °C.

Consider `CCOC(=O)C(C#N)=NNc1c(C#N)c(-c2ccccc2)c(-c2ccccc2)n1Cc1ccccc1` [VIIf, Ethyl 2-(2-(1-Benzyl-3-cyano-4,5-diphenyl-1H-pyrrol-2-yl)hydrazono)-2-cyano-acetate], for which the melting point was in the range of 125 to 130 °C.

Molecule `S=c1[nH]cnc2c1c(-c1ccccc1)c(-c1ccccc1)n2-c1ccc(Cl)c(Cl)c1` [VId, 7-(3,4-Dichlorophenyl)-5,6-diphenyl-3H-pyrrolo[2,3-d]pyrimidine-4(7H)-thione] returned a melting point of 142 to 166 °C.

Take `Cc1c(-n2cc(-c3ccccc3)c3c(=S)[nH]cnc32)c(=O)n(-c2ccccc2)n1C` [VIe, 1,5-Dimethyl-2-phenyl-4-(5-phenyl-4-thioxo-3H-pyrrolo[2,3-d]pyrimidin-7(4H)-yl)-1H-pyrazol-3(2H)-one]: the melting point is 142 to 166 °C.

As for `Cc1nc2c(c(-c3ccccc3)c(-c3ccccc3)n2Cc2ccccc2)c(=S)[nH]1` [VIf, 7-Benzyl-2-methyl-5,6-diphenyl-3H-pyrrolo[2,3-d]pyrimidine-4(7H)-thione], the melting point was in the range of 165 to 167 °C.

Turning to `NNc1ncnc2c1c(-c1ccccc1)c(-c1ccccc1)n2-c1ccc(Cl)c(Cl)c1` [Vd, 7-(3,4-Dichlorophenyl)-4-hydrazinyl-5,6-diphenyl-7H-pyrrolo[2,3-d]pyrimidine], the melting point lay within 122 to 126 °C.

`Cc1c(-n2cc(-c3ccccc3)c3c(NN)ncnc32)c(=O)n(-c2ccccc2)n1C` [Ve, 4-(4-Hydrazinyl-5-phenyl-7H-pyrrolo[2,3-d]pyrimidin-7-yl)-1,5-dimethyl-2-phenyl-1H-pyrazol-3(2H)-one] returned a melting point of 142 to 146 °C.

Consider `Cc1nc(NN)c2c(-c3ccccc3)c(-c3ccccc3)n(Cc3ccccc3)c2n1` [Vf, 7-Benzyl-4-hydrazinyl-2-methyl-5,6-diphenyl-7H-pyrrolo[2,3-d] pyrimidine], for which the melting point is 147 to 152 °C.

Molecule `Cc1nc(NN)c2c(-c3ccccc3)c(-c3ccccc3)n(-c3c(C)n(C)n(-c4ccccc4)c3=O)c2n1` [Vg, 4-(4-Hydrazinyl-2-methyl-5,6-diphenyl-7H-pyrrolo[2,3-d]pyrimidin-7-yl)-1,5-dimethyl-2-phenyl-1H-pyrazol-3(2H)-one] registered a melting point of 185 to 188 °C. Also, the “Potency of antihyperglycemic derivatives compared to Amaryl” value with male Wistar albino rats amounted to 36.19%.

As for `Cc1nc(NN)c2c(-c3ccccc3)c(-c3ccccc3)n(-c3ccc(Cl)c(Cl)c3)c2n1` [Vh, 7-(3,4-Dichlorophenyl)-4-hydrazinyl-2-methyl-5,6-diphenyl-7H-pyrrolo[2,3-d]pyrimidine], the melting point was 142 to 146 °C.

`Cc1nc(NN)c2c(-c3ccccc3)cn(-c3c(C)n(C)n(-c4ccccc4)c3=O)c2n1` [Vi, 4-(4-Hydrazinyl-2-methyl-5-phenyl-7H-pyrrolo[2,3-d]pyrimidin-7-yl)-1,5-dimethyl-2-phenyl-1H-pyrazol-3(2H)-one] registered a melting point of 148 to 150 °C.

As usually defined, the melting point is the temperature, or range, at which the solid turns liquid.

The values above are taken from PMC4099110, “Synthesis and Evaluation of Novel Pyrroles and Pyrrolopyrimidines as Anti-Hyperglycemic Agents” (BioMed Research International, 2014).
